Results reported in patent publication US4257941A, “Polycyclic nitrogen-containing compounds” (BASF Aktiengesellschaft, priority 1976, dated 1981).

Tests used:
barley = experiment: Growth height of barley, greenhouse (Example 9); type: in vivo, barley (Villa); settings: soil; for Plant height relative: control 100
Source text: (§1) In the greenhouse, the four cereals wheat ("Opal" variety), rye ("Petkuser"), barley ("Villa") and oats ("Flamingskrone") were sown in plastic dishes 11.5 cm in diameter in a sandy loam adequately supplied with nutrients. The active ingredients were applied at various rates to the soil and to the leaves. When applied to the soil, the active ingredient were sprayed onto the surface of the soil on the day of sowing; in the case of leaf treatment, the leaves were sprayed in the usual manner at a growth height of the plants of 10 cm. During the 18 day growth period, the treated plants grew much more slowly than the untreated control, a fact later confirmed by measurements of the stem length. Measurements were taken of 100 plants from each series.
(§2) The prior art agent used for comparison purposes was N-2-chloroethyl-N,N,N-trimethylammonium chloride (CCC; German Printed Application DAS No. 1,294,734).

oats = experiment: Growth height of oats, greenhouse (Example 10); type: in vivo, oats (Flamingskrone); settings: soil; for Plant height relative: control 100
Source text: as §1, §2

rye = experiment: Growth height of rye, greenhouse (Example 8); type: in vivo, rye (Petkuser); settings: for Plant height relative: control 100
Source text: as §1, §2

wheat = experiment: Growth height of wheat, greenhouse (Example 7); type: in vivo, wheat (Opal variety); settings: for Plant height relative: control 100
Source text: as §1, §2

lawns = experiment: Long-term action on lawns (Example 14); type: in vivo; settings: for First cutting, green weight relative / First cutting, growth height relative / Second cutting, green weight relative / Second cutting, growth height relative / Third cutting, green weight relative: control 100

## Clc1ccc(N2N=NC3C4CC(C5N=NC45)C32)cc1 (stereo not shown) [drawing 352]
barley; 0.5 kg/ha
  Plant height: 28.0 cm
  Plant height relative: 88.9
barley; 1.0 kg/ha
  Plant height: 28.0 cm
  Plant height relative: 88.9
barley; 2.0 kg/ha
  Plant height: 23.5 cm
  Plant height relative: 74.6
barley; 6.0 kg/ha
  Plant height: 16.5 cm
  Plant height relative: 52.4

## Brc1ccc(N2N=NC3C4CC(C5N=NC45)C32)cc1 (stereo not shown) [drawing 357]
oats; 0.5 kg/ha
  Plant height: 28.0 cm
  Plant height relative: 100
oats; 1.0 kg/ha
  Plant height: 26.5 cm
  Plant height relative: 94.6
oats; 2.0 kg/ha
  Plant height: 24.5 cm
  Plant height relative: 87.5
oats; 6.0 kg/ha
  Plant height: 15.5 cm
  Plant height relative: 55.4

## Clc1ccc(N2N=NC3C4CC(C5N=NC45)C32)cc1 (stereo not shown) [drawing 348]
rye; soil, 0.5 kg/ha
  Plant height: 22.5 cm
  Plant height relative: 77.6
rye; soil, 1.0 kg/ha
  Plant height: 19.0 cm
  Plant height relative: 65.5
rye; soil, 2.0 kg/ha
  Plant height: 13.0 cm
  Plant height relative: 44.8
rye; soil, 6.0 kg/ha
  Plant height: 8.5 cm
  Plant height relative: 29.3

## Clc1ccc(N2N=NC3C4CC(C5N=NC45)C32)cc1 (stereo not shown) [drawing 344]
wheat; soil, 0.5 kg/ha
  Plant height: 28.5 cm
  Plant height relative: 91.9
wheat; soil, 1.0 kg/ha
  Plant height: 23.0 cm
  Plant height relative: 74.2
wheat; soil, 2.0 kg/ha
  Plant height: 20.5 cm
  Plant height relative: 66.1
wheat; soil, 6.0 kg/ha
  Plant height: 10.5 cm
  Plant height relative: 33.9

## Clc1ccc(N2N=NC3C4CC(C5N=NC45)C32)cc1 (stereo not shown) [drawing 356]
oats; 0.5 kg/ha
  Plant height: 25.0 cm
  Plant height relative: 89.3
oats; 1.0 kg/ha
  Plant height: 24.0 cm
  Plant height relative: 85.7
oats; 2.0 kg/ha
  Plant height: 21.0 cm
  Plant height relative: 75.0
oats; 6.0 kg/ha
  Plant height: 15.0 cm
  Plant height relative: 53.6

## Brc1ccc(N2N=NC3C4CC(C5N=NC45)C32)cc1 (stereo not shown) [drawing 347]
wheat; leaf, 0.125 kg/ha
  Plant height: 25.0 cm
  Plant height relative: 83.3
wheat; leaf, 0.5 kg/ha
  Plant height: 23.5 cm
  Plant height relative: 78.3
wheat; leaf, 1.0 kg/ha
  Plant height: 21.0 cm
  Plant height relative: 70.0
wheat; leaf, 2.0 kg/ha
  Plant height: 21.5 cm
  Plant height relative: 71.7
wheat; leaf, 4.0 kg/ha
  Plant height: 20.0 cm
  Plant height relative: 66.7

## c1cc2sncc2cc1N1N=NC2C3CC(C4N=NC34)C21 (stereo not shown) [drawing 382]
lawns; 0.5 kg/ha
  First cutting, green weight: 31.8 g
  First cutting, growth height: 18.5 cm
  Second cutting, green weight: 28.8 g
  Second cutting, growth height: 14.0 cm
  Third cutting, green weight: 15.5 g
  First cutting, green weight relative: 90.1
  First cutting, growth height relative: 102.8
  Second cutting, green weight relative: 107.9
  Second cutting, growth height relative: 95.2
  Third cutting, green weight relative: 102.0
lawns; 1.0 kg/ha
  First cutting, green weight: 27.1 g
  First cutting, growth height: 16.5 cm
  Second cutting, green weight: 25.8 g
  Second cutting, growth height: 13.0 cm
  Third cutting, green weight: 15.3 g
  First cutting, green weight relative: 76.8
  First cutting, growth height relative: 91.7
  Second cutting, green weight relative: 96.6
  Second cutting, growth height relative: 88.4
  Third cutting, green weight relative: 100.7
lawns; 2.0 kg/ha
  First cutting, green weight: 20.3 g
  First cutting, growth height: 14.5 cm
  Second cutting, green weight: 19.1 g
  Second cutting, growth height: 9.0 cm
  Third cutting, green weight: 12.8 g
  First cutting, green weight relative: 57.5
  First cutting, growth height relative: 80.6
  Second cutting, green weight relative: 71.5
  Second cutting, growth height relative: 61.2
  Third cutting, green weight relative: 84.2
lawns; 4.0 kg/ha
  First cutting, green weight: 19.5 g
  First cutting, growth height: 12.5 cm
  Second cutting, green weight: 16.8 g
  Second cutting, growth height: 7.0 cm
  Third cutting, green weight: 12.8 g
  First cutting, green weight relative: 55.2
  First cutting, growth height relative: 69.5
  Second cutting, green weight relative: 62.9
  Second cutting, growth height relative: 47.6
  Third cutting, green weight relative: 84.2

## Clc1ccc(N2N=NC3C4CC(C5N=NC45)C32)cc1 (stereo not shown) [drawing 350]
rye; leaf, 0.125 kg/ha
  Plant height: 24.5 cm
  Plant height relative: 83.1
rye; leaf, 0.5 kg/ha
  Plant height: 20.0 cm
  Plant height relative: 67.8
rye; leaf, 1.0 kg/ha
  Plant height: 18.5 cm
  Plant height relative: 62.7
rye; leaf, 2.0 kg/ha
  Plant height: 17.5 cm
  Plant height relative: 59.3
rye; leaf, 4.0 kg/ha
  Plant height: 16.0 cm
  Plant height relative: 54.2
